#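 Five compound concentrations were applied to cells in 96-well plates for 48 hours; endpoints were derived by simple linear interpolation of the resulting dose-response curve. GI50 = concentration required for 50% inhibition of growth.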 Activity calls are given as the source filed them. No stated cut-off is given here; in the data, active = GI50 up to about 1.1 µM and inactive = higher.
# How the values were obtained:
# Experiment in all cases: NCI tumour cell line growth inhibition, 48 h
# 786-0 = tested on: 786-0
# A498 = tested on: A498
# A549 = tested on: A549
# ACHN = tested on: ACHN
# BT-549 = tested on: BT-549
# CAKI-1 = tested on: CAKI-1
# CCRF-CEM = tested on: CCRF-CEM
# COLO 205 = tested on: COLO 205
# DU-145 = tested on: DU-145
# EKVX = tested on: EKVX
# HCC 2998 = tested on: HCC 2998
# HCT-116 = tested on: HCT-116
# HCT-15 = tested on: HCT-15
# HL-60 = tested on: HL-60
# HOP-62 = tested on: HOP-62
# HOP-92 = tested on: HOP-92
# HT-29 = tested on: HT-29
# Hs-578T = tested on: Hs-578T
# IGROV-1 = tested on: IGROV-1
# K562 = tested on: K562
# KM12 = tested on: KM12
# LOX IMVI = tested on: LOX IMVI
# M14 = tested on: M14
# MCF7 = tested on: MCF7
# MDA-MB-231 = tested on: MDA-MB-231
# MDA-MB-435 = tested on: MDA-MB-435
# MDA-N = tested on: MDA-N
# MOLT-4 = tested on: MOLT-4
# Malme-3M = tested on: Malme-3M
# NCI-H226 = tested on: NCI-H226
# NCI-H23 = tested on: NCI-H23
# NCI-H460 = tested on: NCI-H460
# NCI-H522 = tested on: NCI-H522
# NCI/ADR-RES = tested on: NCI/ADR-RES
# OVCAR-3 = tested on: OVCAR-3
# OVCAR-4 = tested on: OVCAR-4
# OVCAR-5 = tested on: OVCAR-5
# OVCAR-8 = tested on: OVCAR-8
# PC-3 = tested on: PC-3
# RPMI-8226 = tested on: RPMI-8226
# RXF 393 = tested on: RXF 393
# SF-268 = tested on: SF-268
# SF-295 = tested on: SF-295
# SF-539 = tested on: SF-539
# SK-MEL-28 = tested on: SK-MEL-28
# SK-MEL-2 = tested on: SK-MEL-2
# SK-MEL-5 = tested on: SK-MEL-5
# SK-OV-3 = tested on: SK-OV-3
# SN12C = tested on: SN12C
# SNB-19 = tested on: SNB-19
# SNB-75 = tested on: SNB-75
# SR = tested on: SR
# SW-620 = tested on: SW-620
# T47D = tested on: T47D
# TK-10 = tested on: TK-10
# U-251 = tested on: U-251
# UACC-257 = tested on: UACC-257
# UACC-62 = tested on: UACC-62
# UO-31 = tested on: UO-31
smiles,measurement,setting,value
Cn1c(=O)c2nc(CCCCc3nc4ccccc4[nH]3)[nH]c2n(C)c1=O,GI50,786-0,> 100 µM (inactive)
same,GI50,A498,> 100 µM (inactive)
same,GI50,A549,> 100 µM (inactive)
same,GI50,ACHN,> 100 µM (inactive)
same,GI50,BT-549,> 100 µM (inactive)
same,GI50,CAKI-1,50.8 µM (inactive)
same,GI50,CCRF-CEM,> 100 µM (inactive)
same,GI50,COLO 205,> 100 µM (inactive)
same,GI50,DU-145,> 100 µM (inactive)
same,GI50,EKVX,> 100 µM (inactive)
same,GI50,HCC 2998,> 100 µM (inactive)
same,GI50,HCT-116,> 100 µM (inactive)
same,GI50,HCT-15,> 100 µM
same,GI50,HL-60,> 100 µM (inactive)
same,GI50,HOP-62,> 100 µM (inactive)
same,GI50,HOP-92,21.4 µM (inactive)
same,GI50,HT-29,> 100 µM (inactive)
same,GI50,Hs-578T,30.3 µM (inactive)
same,GI50,IGROV-1,> 100 µM (inactive)
same,GI50,K562,> 100 µM (inactive)
same,GI50,KM12,> 100 µM (inactive)
same,GI50,LOX IMVI,> 100 µM (inactive)
same,GI50,M14,> 100 µM (inactive)
same,GI50,MCF7,> 100 µM (inactive)
same,GI50,MDA-MB-231,> 100 µM (inactive)
same,GI50,MDA-MB-435,> 100 µM (inactive)
same,GI50,MDA-N,> 100 µM (inactive)
same,GI50,MOLT-4,> 100 µM (inactive)
same,GI50,Malme-3M,> 100 µM (inactive)
same,GI50,NCI-H226,78.3 µM (inactive)
same,GI50,NCI-H23,> 100 µM (inactive)
same,GI50,NCI-H460,> 100 µM (inactive)
same,GI50,NCI-H522,> 100 µM (inactive)
same,GI50,NCI/ADR-RES,> 100 µM (inactive)
same,GI50,OVCAR-3,> 100 µM (inactive)
same,GI50,OVCAR-4,> 100 µM (inactive)
same,GI50,OVCAR-5,> 100 µM (inactive)
same,GI50,OVCAR-8,> 100 µM (inactive)
same,GI50,PC-3,> 100 µM (inactive)
same,GI50,RPMI-8226,> 100 µM (inactive)
same,GI50,RXF 393,> 100 µM (inactive)
same,GI50,SF-268,> 100 µM (inactive)
same,GI50,SF-295,> 100 µM (inactive)
same,GI50,SF-539,17 µM (inactive)
same,GI50,SK-MEL-28,> 100 µM (inactive)
same,GI50,SK-MEL-2,> 100 µM (inactive)
same,GI50,SK-MEL-5,> 100 µM (inactive)
same,GI50,SK-OV-3,> 100 µM (inactive)
same,GI50,SN12C,> 100 µM (inactive)
same,GI50,SNB-19,> 100 µM (inactive)
same,GI50,SNB-75,30.1 µM (inactive)
same,GI50,SR,> 100 µM (inactive)
same,GI50,SW-620,> 100 µM (inactive)
same,GI50,T47D,> 100 µM (inactive)
same,GI50,TK-10,> 100 µM (inactive)
same,GI50,U-251,> 100 µM (inactive)
same,GI50,UACC-257,> 100 µM (inactive)
same,GI50,UACC-62,> 100 µM (inactive)
same,GI50,UO-31,35.4 µM (inactive)
C=C1C(=O)O[C@H]2[C@@H](O)[C@H](C)CCC/C(C)=C/CC[C@@]3(C)O[C@@H]3C[C@@H]12,GI50,786-0,3.61 µM (inactive)
same,GI50,A498,12.4 µM (inactive)
same,GI50,A549,20.5 µM (inactive)
same,GI50,ACHN,2.16 µM (inactive)
same,GI50,BT-549,3.3 µM (inactive)
same,GI50,CAKI-1,2.33 µM (inactive)
same,GI50,CCRF-CEM,1.07 µM (active)
same,GI50,COLO 205,3.93 µM (inactive)
same,GI50,DU-145,6.03 µM (inactive)
same,GI50,EKVX,4.22 µM (inactive)
same,GI50,HCC 2998,13.2 µM (inactive)
same,GI50,HCT-116,3.19 µM (inactive)
same,GI50,HCT-15,1.92 µM
same,GI50,HL-60,2.47 µM (inactive)
same,GI50,HOP-62,22.3 µM (inactive)
same,GI50,HOP-92,2.59 µM (inactive)
same,GI50,HT-29,5.45 µM (inactive)
same,GI50,Hs-578T,14.7 µM (inactive)
same,GI50,IGROV-1,3.5 µM (inactive)
same,GI50,K562,4.06 µM (inactive)
same,GI50,KM12,16.8 µM (inactive)
same,GI50,LOX IMVI,4.43 µM (inactive)
same,GI50,M14,3.94 µM (inactive)
same,GI50,MCF7,7.18 µM (inactive)
same,GI50,MDA-MB-231,12.9 µM (inactive)
same,GI50,MDA-MB-435,7.5 µM (inactive)
same,GI50,MDA-N,11.2 µM (inactive)
same,GI50,MOLT-4,2.29 µM (inactive)
same,GI50,Malme-3M,11.5 µM (inactive)
same,GI50,NCI-H226,1.53 µM (inactive)
same,GI50,NCI-H23,8.75 µM (inactive)
same,GI50,NCI-H460,5.89 µM (inactive)
same,GI50,NCI-H522,2.68 µM (inactive)
same,GI50,NCI/ADR-RES,6.43 µM (inactive)
same,GI50,OVCAR-3,11.3 µM (inactive)
same,GI50,OVCAR-4,7.16 µM (inactive)
same,GI50,OVCAR-5,15.7 µM (inactive)
same,GI50,OVCAR-8,4.38 µM (inactive)
same,GI50,PC-3,13.7 µM (inactive)
same,GI50,RPMI-8226,8.38 µM (inactive)
same,GI50,RXF 393,2.85 µM (inactive)
same,GI50,SF-268,8.22 µM (inactive)
same,GI50,SF-295,18.1 µM (inactive)
same,GI50,SF-539,2.59 µM (inactive)
same,GI50,SK-MEL-28,13.7 µM (inactive)
same,GI50,SK-MEL-2,18.1 µM (inactive)
same,GI50,SK-MEL-5,11.8 µM (inactive)
same,GI50,SK-OV-3,18.5 µM (inactive)
same,GI50,SN12C,5.77 µM (inactive)
same,GI50,SNB-19,16.7 µM (inactive)
same,GI50,SNB-75,15.1 µM (inactive)
same,GI50,SR,1.88 µM (inactive)
same,GI50,SW-620,10.2 µM (inactive)
same,GI50,T47D,3.4 µM (inactive)
same,GI50,TK-10,1.86 µM (inactive)
same,GI50,U-251,8.73 µM (inactive)
same,GI50,UACC-257,9.16 µM (inactive)
same,GI50,UACC-62,9.79 µM (inactive)
same,GI50,UO-31,5.47 µM (inactive)

# Reference: ChEMBL document CHEMBL1201862, “PubChem BioAssay data set” (2004)
